Assay results taken from US12540134B2, “Inhibitors of adrenoreceptor ADRAC2” (Bayer Aktiengesellschaft, priority 2019, dated 2026).

How the values were obtained:
human ADRA2C receptor [1] = biological target: T1, human ADRA2C receptor (Homo sapiens (Human), UniProt P18825); experiment: In vitro activity assay, inhibition of recombinant ADRA2C (CHO-K1 cells coexpressing Gαq and aequorin, noradrenaline-induced bioluminescence); assay type: cell-based; conditions: inhibition of agonist (noradrenaline)-induced bioluminescence signal; some values are means of multiple determinations; read-out: ARα2C IC50
Method: B-2. In Vitro Activity Assay to Determine the Inhibition of Recombinant ADRA2C
The human ADRA2C receptor belongs to the G protein (guanine-dependent protein)-coupled receptors, the main function of which is the transduction of signals into the interior of the cell.
The investigations of the inhibition of the recombinant human ADRA2C receptors were carried out with stably transfected CHO-K1 cells coexpressing the Gαq protein and the calcium-sensitive photoprotein aequorin. In this recombinant system, binding of the agonists noradrenaline to the ADRA2C receptor leads, after activation of a signal cascade, to calcium release from intracellular stores, which is detected by the intracellular calcium sensor aequorin as a bioluminescent signal. The method is described in detail in the reference below. [Wunder F., Kalthof B., Muller T., Hueser J. Functional Cell-Based Assays in Microliter Volumes for Ultra-High Throughput Screening. Combinatorial Chemistry & High Throughput Screening, Volume 11, Number 7, 2008, pp. 495-504(10). doi.org/10.2174/138620708785204054]
The activity of the test substances was determined via their ability to inhibit the agonist-induced increase of the bioluminescence signal. The concentration which can block half of this signal increase is referred to as IC50. The IC50 value is calculated using the 4 parameter logistic function (Hill function):
Top=upper threshold, Bottom=lower threshold, Slope=slope, IC50=turning point

human ADRA2C receptor [2] = biological target: T1, human ADRA2C receptor; experiment: In vitro radioligand binding study, competition assay with [3H] rauwolscine (Eurofins Panlabs); conditions: for Ki: calculated from IC50 and Kd with the Cheng Prusoff equation, [3H] rauwolscine competition, read-out: hARα2C Ki; for IC50: displacement of 0.5 nM [3H] rauwolscine, homogenates of CHO-K1 cells expressing human ADRA2C, 1 h, 4° C., read-out: hARα2C IC50
Method: B-1 In Vitro Radioligand Binding Studies for Determination of the Dissociation Constants Ki at the Human Adrenoreceptor ADRA2C (Eurojins Panlabs Discovery Services, Taiwan, Ltd)
A competition assay based on [^3H] rauwolscine as radioliganden was used to determine the binding affinity of the test substances at the human ADRA2C receptor.
To configure the competition assay, the equilibrium dissociation constant Kd of the radioligand [^3H] rauwolscine was determined in a saturation experiment. To this end, homogenates of CHO-K1 cells recombinantly expressing the human ADRA2C receptor were incubated with increasing concentrations of the radiotracers for 1 h at 4° C. in binding buffer (50 mM Tris-HCl, 1 mM EDTA, pH 7.4). Unspecific binding was determined by addition of an excess of the not radioactively labelled ligand prazosin (10 μM). The radioactivity was determined in a scintiation counter.
The competition experiments were carried out in the presence of 0.5 nM [^3H] rauwolscine and increasing concentrations of the test substances to be characterized under the conditions described above.
From the IC50 value measured in the competition experiment and the Kd value from the saturation experiment, the equilibrium constant Ki of the inhibitor, which describes the affinity of the test substances to the receptor, was calculated using the Cheng Prusoff equation [Cheng Y, Prusoff W H. Relationship between the inhibition constant (Ki) and the concentration of inhibitor which causes 50 percent inhibition (ISO) of an enzymatic reaction. […] PMID 4202581 PMID: 4202581].

T1 sequence (P18825 whole entry): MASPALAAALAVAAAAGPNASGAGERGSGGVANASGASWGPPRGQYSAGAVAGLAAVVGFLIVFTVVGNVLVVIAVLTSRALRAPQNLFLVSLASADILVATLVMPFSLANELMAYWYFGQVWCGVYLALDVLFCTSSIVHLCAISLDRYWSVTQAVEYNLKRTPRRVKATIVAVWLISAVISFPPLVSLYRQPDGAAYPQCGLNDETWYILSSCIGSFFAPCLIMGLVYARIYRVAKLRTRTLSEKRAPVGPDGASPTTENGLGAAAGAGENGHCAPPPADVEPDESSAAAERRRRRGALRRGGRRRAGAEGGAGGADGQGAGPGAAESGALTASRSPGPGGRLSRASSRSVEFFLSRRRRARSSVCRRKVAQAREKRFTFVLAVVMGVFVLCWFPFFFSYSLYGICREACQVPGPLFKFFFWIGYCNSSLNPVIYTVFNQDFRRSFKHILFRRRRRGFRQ

| SMILES | IC50 (human ADRA2C receptor [1]) [µM] | Ki (human ADRA2C receptor [2]) [µM] | IC50 (human ADRA2C receptor [2]) [µM] |
| --- | --- | --- | --- |
| C[C@@H]1CCCN(C2CCN(c3ncc(C(=O)NCc4cc(Cl)ccc4F)s3)CC2F)C1 (mixture of isomers) [Example 113, diamix-N-(5-Chloro-2-fluorobenzyl)-2-[(3R)-3′-fluoro-3-methyl[1,4′-bipiperidin]-1′-yl]-1,3-thiazole-5-carboxamide] | 0.00061 |  |  |
| O=C(NCc1ncc(F)cc1F)c1cnc(N2CCC(N3CCCC(C4CC4)C3)CC2)s1 (racemic) [Example 137, 2-(3-cyclopropyl[1,4′-bipiperidin]-1′-yl)-N-[(3,5-difluoropyridin-2-yl)methyl]-1,3-thiazole-5-carboxamide] | 0.019 |  |  |
| O=C(NCc1ncc(F)cc1F)c1cnc(N2CCC(N3CCCC(C4CCC4)C3)CC2)s1 (racemic) [Example 138, 2-(3-cyclobutyl[1,4′-bipiperidin]-1′-yl)-N-[(3,5-difluoropyridin-2-yl)methyl]-1,3-thiazole-5-carboxamide] | 0.0065 |  |  |
| COCCC1CCCN(C2CCN(c3ncc(C(=O)NCc4ncc(F)cc4F)s3)CC2)C1 (racemic) [Example 148, N-[(3,5-difluoropyridin-2-yl)methyl]-2-[3-(2-methoxyethyl)[1,4′-bipiperidin]-1′-yl]-1,3-thiazole-5-carboxamide] | 0.0013 |  |  |
| CC(C)(C)C1CCCN(C2CCN(c3ncc(C(=O)NCc4ncc(F)cc4F)s3)CC2)C1 (racemic) [Example 149, 2-(3-tert-butyl[1,4′-bipiperidin]-1′-yl)-N-[(3,5-difluoropyridin-2-yl)methyl]-1,3-thiazole-5-carboxamide] | 0.035 |  |  |
| O=C(NCc1ncc(F)cc1F)c1cnc(N2CCCC(N3CCCC4(CC4)C3)CC2)s1 (racemic) [Example 153, rac-2-[4-(5-Azaspiro[2.5]octan-5-yl)azepan-1-yl]-N-[(3,5-difluoropyridin-2-yl)methyl]-1,3-thiazole-5-carboxamide] | 0.023 |  |  |
| C[C@@H]1CCCN(C2CCN(c3ncc(C(=O)NC[C@H](C)c4ccccc4)s3)CC2)C1 (relative stereo) [Example 83, rel-2-[(3R)-3-methyl[1,4′-bipiperidin]-1′-yl]-N-[(2R)-2-phenylpropyl]-1,3-thiazole-5-carboxamide] | 0.0981 |  |  |
| Cc1ccc([C@@H](C)NC(=O)c2cnc(N3CCC(N4CCC[C@@H](C)C4)CC3)s2)cc1 (relative stereo) [Example 95, rel-2-[(3R)-3-methyl[1,4′-bipiperidin]-1′-yl]-N-[(1R)-1-(4-methylphenyl)ethyl]-1,3-thiazole-5-carboxamide] | 0.8 |  |  |
| CC(NC(=O)c1cnc(N2CCC(N3CCC[C@@H](C)C3)CC2)s1)c1cc(F)ccc1F (single isomer, unassigned) [Example 46] | 0.0083 |  |  |
| CCOC1CCCN(C2CCN(c3ncc(C(=O)NCc4ncc(F)cc4F)s3)CC2)C1 (single isomer, unassigned) [Example 124, ent-N-[(3,5-Difluoropyridin-2-yl)methyl]-2-(3-ethoxy[1,4′-bipiperidin]-1′-yl)-1,3-thiazole-5-carboxamide] |  | 0.0023 | 0.0051 |
| C[C@@H]1CCCN(C2CCN(c3nc(C(=O)NCc4ncc(F)cc4F)cs3)CC2F)C1 (single isomer, unassigned) [Example 157] | 0.0027 |  |  |
| C[C@@H]1CCCN(C2CCN(c3nc(C(=O)NCc4ncc(F)cc4F)cs3)CC2F)C1 (single isomer, unassigned) [Example 158] | 0.098 |  |  |
| C[C@@H]1CCCN(C2CCN(c3nc(C(=O)NCc4ncc(F)cc4F)co3)CC2F)C1 (single isomer, unassigned) [Example 159] | 0.025 |  |  |
| C[C@@H]1CCCN(C2CCN(c3nc(C(=O)NCc4ncc(F)cc4F)co3)CC2F)C1 (single isomer, unassigned) [Example 160] | 0.435 |  |  |
| CC1CC(N2CCC[C@@H](C)C2)CCN1c1ncc(C(=O)NCc2ncc(F)cc2F)s1 (single isomer, unassigned) [Example 161] | 0.233 |  |  |
| CCC1CN(c2ncc(C(=O)NCc3ncc(F)cc3F)s2)CCC1N1CCC[C@@H](C)C1 (single isomer, unassigned) [Example 162] | 0.81 |  |  |
| CCC1CN(c2ncc(C(=O)NCc3ncc(F)cc3F)s2)CCC1N1CCC[C@@H](C)C1 (single isomer, unassigned) [Example 163] | 0.48 |  |  |
| CC1CN(c2ncc(C(=O)NCc3ncc(F)cc3F)s2)CCC1N1CCC[C@@H](C)C1 (single isomer, unassigned) [Example 164] | 0.024 |  |  |
| CC1CN(c2ncc(C(=O)NCc3ncc(F)cc3F)s2)CCC1N1CCC[C@@H](C)C1 (single isomer, unassigned) [Example 165] | 0.41 |  |  |
| C[C@@H]1CCCN(C2CCN(c3ncc(C(=O)NCc4ncc(F)cc4F)s3)CC2)C1 [Example 1, N-[(3,5-Difluoropyridin-2-yl)methyl]-2-[(3R)-3-methyl[1,4′-bipiperidin]-1′-yl]-1,3-thiazole-5-carboxamide] |  | 0.024 | 0.054 |
| C[C@@H]1CCCN(C2CCN(c3ncc(C(=O)NCc4cccc(C(F)(F)F)n4)s3)CC2)C1 [Example 32] | 0.64 |  |  |
| O=C(NCc1ncc(F)cc1F)c1cnc(N2CCC(N3CCC[C@@H](CF)C3)CC2)s1 [Example 41, N-[(3,5-Difluoropyridin-2-yl)methyl]-2-[(3R)-3-(fluoromethyl)[1,4′-bipiperidin]-1′-yl]-1,3-thiazole-5-carboxamide] |  | 0.056 | 0.13 |
| O=C(NCc1ncc(F)cc1F)c1cnc(N2CCC(N3CCC[C@@H](C(F)(F)F)C3)CC2)s1 [Example 43, N-[(3,5-Difluoropyridin-2-yl)methyl]-2-[(3R)-3-(trifluoromethyl)[1,4′-bipiperidin]-1′-yl]-1,3-thiazole-5-carboxamide] | 0.261 |  |  |
| CC(NC(=O)c1cnc(N2CCC(N3CCC[C@@H](C)C3)CC2)s1)c1cc(F)ccc1F (stereo partly drawn) [Example 47, N-[1-(2,5-Difluorophenyl)ethyl]-2-[(3R)-3-methyl[1,4′-bipiperidin]-1′-yl]-1,3-thiazole carboxamide] | 0.025 |  |  |
| O=C(NCc1ncc(F)cc1F)c1cnc(N2CCC(N3CCCC4(CC4)C3)CC2)s1 [Example 64, 2-[4-(5-Azaspiro[2.5]octan-5-yl)piperidin-1-yl]-N-[(3,5-difluoropyridin-2-yl)methyl]-1,3-thiazole-5-carboxamide] |  | 0.0028 | 0.0062 |
| C[C@@H]1CCCN(C2CCN(c3ncc(C(=O)Nc4ccc(F)cc4Cl)s3)CC2)C1 [Example 88, N-(2-chloro-4-fluorophenyl)-2-[(3R)-3-methyl[1,4′-bipiperidin]-1′-yl]-1,3-thiazole-5-carboxamide] | 0.489 |  |  |
| C[C@@H]1CCCN(C2CCN(c3ncc(C(=O)N(C)Cc4cccnc4)s3)CC2)C1 [Example 90, N-methyl-2-[(3R)-3-methyl[1,4′-bipiperidin]-1′-yl]-N-(pyridin-3-ylmethyl)-1,3-thiazole-5-carboxamide] | 0.971 |  |  |
| C[C@@H]1CCCN(C2CCN(c3nnc(C(=O)NCc4ncc(F)cc4F)s3)CC2)C1 [Example 152, N-[(3,5-difluoropyridin-2-yl)methyl]-5-[(3R)-3-methyl[1,4′-bipiperidin]-1′-yl]-1,3,4-thiadiazole-2-carboxamide] | 0.66 |  |  |
| O=C(NCc1ncc(F)cc1F)c1cnc(N2CCCC(N3CCCC4(C3)CC4(F)F)CC2)s1 (stereo not drawn) [Example 156, diamix-2-[4-(1,1-Difluoro-5-azaspiro[2.5]octan-5-yl)azepan-1-yl]-N-[(3,5-difluoropyridin-2-yl)-methyl]-1,3-thiazole-5-carboxamide] | 0.036 |  |  |
